Measurements as given in ChEMBL document CHEMBL1201862, “PubChem BioAssay data set” (2004).
Activity calls are given as the source filed them.

Key:
[1] = target: UDP-galactopyranose mutase (Mycobacterium tuberculosis, UniProt P9WIQ1); assay: Inhibitors of Mycobacterium tuberculosis UDP-galactopyranose mutase (UGM) enzyme Measured in Biochemical System Using Plate Reader - 2105-02_Inhibitor_Dose_CherryPick_Activity. [Related pubchem assays (depositor defined):AID504439]
[2] = HEp-2 cell cytotoxicity, dose response, cytotoxicity control for RSV inhibitor project, HTS (AID 2410); assay type: functional; settings: human respiratory syncytial virus
[3] = Luminescence Cell-Based Dose Confirmation HTS to Identify Activators of 5'UTR Stem-Loop Driven Alpha-Synuclein mRNA Translation in H4 Neuroglioblastoma Cells. [Related pubchem assays: 1829 (Project Summary), 1814 (Primary HTS)]; assay type: functional
[4] = Luminescence Cell-Based Dose Response HTS to Identify Activators of Luciferase Translation or Activity in H4 […] Cells. [Related pubchem assays: 1829 (Project Summary), 1814 (Primary HTS)]; assay type: functional
H4 = assay: Luminescence Cell-Based Dose Response HTS to Identify Activators of 5'UTR Stem-Loop Driven Prion Protein mRNA Translation in H4 Neuroglioblastoma Cells. [Related pubchem assays: 1829 (Project Summary), 1814 (Primary HTS)]; assay type: functional; settings: Homo sapiens
[5] = microbe, parasite or virus in culture; assay type: functional; settings: Mycobacterium tuberculosis
Exodeoxyribonuclease V = target: T1, Exodeoxyribonuclease V (Escherichia coli (strain K12), UniProt P04993+P07648+P08394); assay: E. coli RecBCD inhibitors, dose response, counter-screen for AddAB inhibitor project, absorbance, V66 E. coli, mutant T4 phage (AID 492957); assay type: functional, cell-based, Escherichia coli str. K-12 substr. MG1655
T1 sequence (P04993 whole entry): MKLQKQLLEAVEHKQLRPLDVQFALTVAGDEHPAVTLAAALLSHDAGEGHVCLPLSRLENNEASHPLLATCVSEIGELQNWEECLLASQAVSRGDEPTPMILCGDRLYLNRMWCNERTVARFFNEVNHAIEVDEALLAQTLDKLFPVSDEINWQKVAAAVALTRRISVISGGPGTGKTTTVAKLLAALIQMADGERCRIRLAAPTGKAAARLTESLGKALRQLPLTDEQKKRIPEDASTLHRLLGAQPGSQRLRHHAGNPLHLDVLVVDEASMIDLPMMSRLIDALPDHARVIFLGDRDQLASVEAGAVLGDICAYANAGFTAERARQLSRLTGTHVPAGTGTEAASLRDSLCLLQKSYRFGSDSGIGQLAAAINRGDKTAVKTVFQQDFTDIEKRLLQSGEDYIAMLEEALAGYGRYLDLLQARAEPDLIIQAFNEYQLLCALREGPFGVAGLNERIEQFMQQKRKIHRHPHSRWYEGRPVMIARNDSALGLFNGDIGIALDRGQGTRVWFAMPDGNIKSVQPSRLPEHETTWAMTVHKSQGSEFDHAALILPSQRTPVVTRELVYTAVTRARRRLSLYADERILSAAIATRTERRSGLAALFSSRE
T1 sequence (P07648 whole entry): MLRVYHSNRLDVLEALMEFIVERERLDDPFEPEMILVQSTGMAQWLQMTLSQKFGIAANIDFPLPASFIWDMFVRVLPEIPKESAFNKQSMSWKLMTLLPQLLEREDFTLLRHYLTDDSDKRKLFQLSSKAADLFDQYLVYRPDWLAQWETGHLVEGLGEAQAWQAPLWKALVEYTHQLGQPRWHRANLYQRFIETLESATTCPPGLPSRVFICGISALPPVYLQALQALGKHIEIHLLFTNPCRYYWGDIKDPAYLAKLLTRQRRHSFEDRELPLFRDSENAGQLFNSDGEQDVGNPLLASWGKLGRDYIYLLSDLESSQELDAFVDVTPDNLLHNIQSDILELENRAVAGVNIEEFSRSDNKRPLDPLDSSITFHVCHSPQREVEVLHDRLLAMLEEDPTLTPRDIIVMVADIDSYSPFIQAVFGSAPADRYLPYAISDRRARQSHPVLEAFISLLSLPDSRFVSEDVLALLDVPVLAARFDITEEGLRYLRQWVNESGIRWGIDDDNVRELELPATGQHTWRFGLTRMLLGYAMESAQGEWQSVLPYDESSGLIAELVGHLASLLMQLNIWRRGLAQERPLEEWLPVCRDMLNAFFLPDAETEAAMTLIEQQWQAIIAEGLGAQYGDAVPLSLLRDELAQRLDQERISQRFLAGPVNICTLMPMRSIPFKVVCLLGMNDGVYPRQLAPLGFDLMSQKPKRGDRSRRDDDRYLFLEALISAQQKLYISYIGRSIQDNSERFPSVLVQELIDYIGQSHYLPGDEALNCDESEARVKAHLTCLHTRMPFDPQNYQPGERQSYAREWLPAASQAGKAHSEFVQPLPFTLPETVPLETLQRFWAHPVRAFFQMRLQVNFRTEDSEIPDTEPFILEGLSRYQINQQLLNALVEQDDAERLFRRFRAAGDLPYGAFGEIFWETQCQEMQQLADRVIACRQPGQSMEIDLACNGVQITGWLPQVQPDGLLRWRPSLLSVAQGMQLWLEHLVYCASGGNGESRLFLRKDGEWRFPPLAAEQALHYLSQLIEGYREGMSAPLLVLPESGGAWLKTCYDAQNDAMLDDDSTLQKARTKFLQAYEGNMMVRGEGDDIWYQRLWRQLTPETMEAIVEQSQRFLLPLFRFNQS
T1 sequence (P08394 whole entry): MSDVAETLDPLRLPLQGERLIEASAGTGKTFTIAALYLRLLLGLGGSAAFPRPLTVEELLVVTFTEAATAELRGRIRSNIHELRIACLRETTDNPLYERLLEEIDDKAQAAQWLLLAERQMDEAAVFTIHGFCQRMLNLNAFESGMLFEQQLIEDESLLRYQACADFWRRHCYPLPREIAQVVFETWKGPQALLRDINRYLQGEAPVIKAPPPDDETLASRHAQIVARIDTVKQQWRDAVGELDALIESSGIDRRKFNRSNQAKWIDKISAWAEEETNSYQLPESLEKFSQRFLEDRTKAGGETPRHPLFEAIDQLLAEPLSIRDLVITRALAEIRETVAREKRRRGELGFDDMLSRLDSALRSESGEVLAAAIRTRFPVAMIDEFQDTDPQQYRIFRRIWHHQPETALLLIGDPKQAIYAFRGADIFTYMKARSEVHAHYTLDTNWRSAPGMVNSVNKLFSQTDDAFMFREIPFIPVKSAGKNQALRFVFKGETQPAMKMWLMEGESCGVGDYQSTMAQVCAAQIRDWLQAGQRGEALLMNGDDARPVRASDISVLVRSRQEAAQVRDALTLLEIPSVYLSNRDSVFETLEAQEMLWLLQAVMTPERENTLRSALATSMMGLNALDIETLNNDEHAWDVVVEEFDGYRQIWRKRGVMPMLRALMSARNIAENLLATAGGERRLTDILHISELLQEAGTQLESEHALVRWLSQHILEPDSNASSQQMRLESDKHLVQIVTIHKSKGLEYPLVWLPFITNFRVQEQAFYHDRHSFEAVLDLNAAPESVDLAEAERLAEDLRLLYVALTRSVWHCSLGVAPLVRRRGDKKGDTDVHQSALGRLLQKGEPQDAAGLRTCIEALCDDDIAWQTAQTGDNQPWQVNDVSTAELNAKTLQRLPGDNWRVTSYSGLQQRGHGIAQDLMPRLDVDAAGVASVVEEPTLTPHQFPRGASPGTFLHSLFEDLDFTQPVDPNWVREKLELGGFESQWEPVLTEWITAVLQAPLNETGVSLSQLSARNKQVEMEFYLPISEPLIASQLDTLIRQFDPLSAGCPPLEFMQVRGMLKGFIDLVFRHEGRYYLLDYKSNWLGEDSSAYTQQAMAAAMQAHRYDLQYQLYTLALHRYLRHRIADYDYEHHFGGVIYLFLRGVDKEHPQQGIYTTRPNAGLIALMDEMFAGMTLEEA

[6] = Counterscreen for AddAB inhibitors: absorbance-based bacterial cell-based high throughput dose response assay for inhibitors of bacterial viability. [Related pubchem assays (depositor defined):AID435030, AID449728, AID449731, AID488942, AID488955, AID488956]; assay type: functional
HEK293 = assay: cells; assay type: functional, cell-based; settings: Homo sapiens
[7] = target: T2, Nuclear receptor subfamily 0 group B member 1 (Homo sapiens, UniProt P51843); assay: Luminescence-based cell-based high throughput dose response assay for inhibitors of the orphan nuclear receptor subfamily 0, group B, member 1 (DAX1; NR0B1). [Related pubchem assays (depositor defined):AID504766, AID504790]; assay type: functional
T2 sequence (P51843 whole entry): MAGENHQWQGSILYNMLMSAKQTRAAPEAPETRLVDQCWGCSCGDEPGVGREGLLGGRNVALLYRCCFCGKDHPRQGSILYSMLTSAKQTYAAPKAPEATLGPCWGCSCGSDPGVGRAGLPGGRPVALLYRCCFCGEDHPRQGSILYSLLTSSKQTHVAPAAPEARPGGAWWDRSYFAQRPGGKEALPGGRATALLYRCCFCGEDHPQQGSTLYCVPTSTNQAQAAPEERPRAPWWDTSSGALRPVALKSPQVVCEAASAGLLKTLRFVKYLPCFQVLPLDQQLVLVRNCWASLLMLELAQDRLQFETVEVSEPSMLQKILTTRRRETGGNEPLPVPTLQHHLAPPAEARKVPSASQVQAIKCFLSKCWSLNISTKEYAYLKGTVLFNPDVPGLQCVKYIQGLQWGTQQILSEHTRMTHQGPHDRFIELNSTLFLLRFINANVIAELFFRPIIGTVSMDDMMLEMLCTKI

Cytochrome P450 2C19 = Cytochrome P450 2C19 (Homo sapiens, UniProt P33261); assay: Cytochrome panel assay with activity outcomes. Panel member name: p450-cyp2c19 Compounds with AC50 equal or less than 10 uM are considered active; assay type: functional; settings: read-out: AC50
Cytochrome P450 2C19, sequence (P33261 whole entry, the tested form may be a part): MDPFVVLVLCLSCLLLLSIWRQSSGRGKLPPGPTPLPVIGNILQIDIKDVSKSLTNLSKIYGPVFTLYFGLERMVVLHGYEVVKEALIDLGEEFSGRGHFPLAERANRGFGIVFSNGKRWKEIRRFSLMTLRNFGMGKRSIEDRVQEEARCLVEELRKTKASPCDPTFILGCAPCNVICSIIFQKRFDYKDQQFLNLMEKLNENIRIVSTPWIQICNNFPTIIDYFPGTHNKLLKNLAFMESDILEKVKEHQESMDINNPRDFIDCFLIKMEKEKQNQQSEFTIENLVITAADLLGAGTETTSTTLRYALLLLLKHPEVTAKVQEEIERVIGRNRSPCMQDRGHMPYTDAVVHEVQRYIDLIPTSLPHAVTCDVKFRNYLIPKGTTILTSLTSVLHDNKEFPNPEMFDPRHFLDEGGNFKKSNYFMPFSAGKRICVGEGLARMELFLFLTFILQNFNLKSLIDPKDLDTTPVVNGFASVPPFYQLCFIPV

CHO = assay: cytotoxicity in TLR9-MyD88 CHO cells, dose response, cytotoxicity control for TLR9-MyD88 binding inhibitor project, cell-based, luminescence (AID 588339); assay type: functional, hamster; settings: Cricetulus griseus;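 note: CHO cells stably coexpressing TLR9 and MyD88 fusions from primary screen; compound exposure lasted 48 hours before viability readout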
Beta Lactamase = Beta Lactamase (Pseudomonas aeruginosa, UniProt Q932Y6); assay: beta-lactamase reporter inhibitor potency, dose response, artefact control for TLR9-MyD88 binding inhibitor project, BLA reporter cells, FRET fluorescence (AID 588341); assay type: cell-based;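 note: cell based assay in CHO-K1 cells stably expressing beta-lactamase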
Beta Lactamase, sequence (Q932Y6 whole entry): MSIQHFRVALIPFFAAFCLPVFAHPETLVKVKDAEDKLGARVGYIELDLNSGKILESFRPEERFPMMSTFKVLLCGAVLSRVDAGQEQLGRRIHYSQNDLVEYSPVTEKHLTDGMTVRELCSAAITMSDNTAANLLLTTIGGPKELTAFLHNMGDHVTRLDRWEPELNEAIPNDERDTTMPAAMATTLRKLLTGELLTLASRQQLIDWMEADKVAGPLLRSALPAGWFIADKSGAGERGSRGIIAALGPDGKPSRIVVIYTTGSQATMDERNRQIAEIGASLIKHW

Cytochrome P450 3A4 = Cytochrome P450 3A4 (Homo sapiens, UniProt P08684);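 note: CYP3A4 tested as one member of a cytochrome P450 panel screen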
Cytochrome P450 3A4, sequence (P08684 whole entry): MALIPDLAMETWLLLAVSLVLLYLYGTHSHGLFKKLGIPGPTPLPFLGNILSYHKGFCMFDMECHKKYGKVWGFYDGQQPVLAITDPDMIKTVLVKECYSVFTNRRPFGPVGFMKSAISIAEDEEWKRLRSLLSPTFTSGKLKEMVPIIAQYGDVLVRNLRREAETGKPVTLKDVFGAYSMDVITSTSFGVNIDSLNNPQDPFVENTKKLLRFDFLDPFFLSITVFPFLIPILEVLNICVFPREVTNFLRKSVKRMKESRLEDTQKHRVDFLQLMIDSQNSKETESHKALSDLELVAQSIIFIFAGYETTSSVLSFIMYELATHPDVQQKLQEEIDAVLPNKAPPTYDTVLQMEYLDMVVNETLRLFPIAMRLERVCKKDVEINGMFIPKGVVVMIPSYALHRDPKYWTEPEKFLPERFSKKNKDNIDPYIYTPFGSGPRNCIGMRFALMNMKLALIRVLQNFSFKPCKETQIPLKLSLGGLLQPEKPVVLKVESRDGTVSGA

[8] = target: Glucose-6-phosphate 1-dehydrogenase (Homo sapiens, UniProt P11413); assay: human G6PD enzyme inhibitors, dose response, selectivity assay for P. falciparum G6PD inhibitor project, biochemical, fluorescence (AID 504792); assay type: functional
Glucose-6-phosphate 1-dehydrogenase, sequence (P11413 whole entry): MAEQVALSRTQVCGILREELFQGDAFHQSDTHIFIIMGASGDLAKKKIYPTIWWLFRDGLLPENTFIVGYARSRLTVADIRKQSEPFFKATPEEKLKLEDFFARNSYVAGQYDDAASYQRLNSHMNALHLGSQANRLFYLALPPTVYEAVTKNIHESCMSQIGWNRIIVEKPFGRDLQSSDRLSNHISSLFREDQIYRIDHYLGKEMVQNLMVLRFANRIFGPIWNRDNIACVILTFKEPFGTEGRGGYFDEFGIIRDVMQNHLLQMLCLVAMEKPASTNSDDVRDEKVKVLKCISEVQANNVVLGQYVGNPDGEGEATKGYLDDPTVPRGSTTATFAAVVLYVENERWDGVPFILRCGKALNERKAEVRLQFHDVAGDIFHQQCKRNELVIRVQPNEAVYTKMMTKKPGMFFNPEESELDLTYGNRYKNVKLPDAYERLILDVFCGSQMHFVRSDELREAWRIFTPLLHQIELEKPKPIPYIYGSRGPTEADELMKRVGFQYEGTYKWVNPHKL

Genome polyprotein = Genome polyprotein (dengue virus type 2, UniProt P29990); assay: Dengue-2 NS5 methyltransferase inhibitors, primary screen, biochemical, confirmation dose response (AID 588689); assay type: functional
Genome polyprotein, sequence (P29990 2492-3391 limits assumed): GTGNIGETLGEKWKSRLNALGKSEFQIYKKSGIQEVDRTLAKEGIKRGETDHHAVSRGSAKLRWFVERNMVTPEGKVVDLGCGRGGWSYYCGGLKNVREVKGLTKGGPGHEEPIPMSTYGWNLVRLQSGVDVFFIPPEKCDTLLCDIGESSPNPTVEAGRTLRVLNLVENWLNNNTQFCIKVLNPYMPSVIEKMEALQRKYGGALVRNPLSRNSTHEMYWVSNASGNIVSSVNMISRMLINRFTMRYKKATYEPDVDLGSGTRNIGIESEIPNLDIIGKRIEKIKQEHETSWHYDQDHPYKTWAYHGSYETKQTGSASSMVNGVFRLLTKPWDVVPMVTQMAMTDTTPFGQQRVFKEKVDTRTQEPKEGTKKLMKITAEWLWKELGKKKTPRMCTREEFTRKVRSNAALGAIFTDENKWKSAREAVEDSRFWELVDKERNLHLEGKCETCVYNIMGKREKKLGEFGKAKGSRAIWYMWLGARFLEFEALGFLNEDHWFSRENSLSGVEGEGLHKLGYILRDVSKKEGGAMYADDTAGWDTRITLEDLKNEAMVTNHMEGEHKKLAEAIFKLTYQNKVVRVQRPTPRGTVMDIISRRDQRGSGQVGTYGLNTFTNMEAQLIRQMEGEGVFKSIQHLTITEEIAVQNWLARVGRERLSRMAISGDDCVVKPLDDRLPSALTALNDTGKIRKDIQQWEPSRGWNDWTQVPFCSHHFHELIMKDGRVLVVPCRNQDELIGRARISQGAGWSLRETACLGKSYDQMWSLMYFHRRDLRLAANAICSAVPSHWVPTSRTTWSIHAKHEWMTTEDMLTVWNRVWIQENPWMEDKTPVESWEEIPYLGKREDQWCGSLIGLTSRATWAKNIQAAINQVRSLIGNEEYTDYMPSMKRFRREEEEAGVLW

[9] = THP-1 cell cytotoxicity, dose response, cytotoxicity control for non-replicating M. tuberculosis project (AID 489025); assay type: functional
[10] = target: T3, Microphthalmia-associated transcription factor (Homo sapiens, UniProt O75030); assay: TRPM1 promoter luciferase signal decrease, dose response, MITF inhibitor project, cell-based, SK-MEL-5, cherry-picked, set 3 (AID 493073); assay type: functional
T3 sequence (O75030 whole entry): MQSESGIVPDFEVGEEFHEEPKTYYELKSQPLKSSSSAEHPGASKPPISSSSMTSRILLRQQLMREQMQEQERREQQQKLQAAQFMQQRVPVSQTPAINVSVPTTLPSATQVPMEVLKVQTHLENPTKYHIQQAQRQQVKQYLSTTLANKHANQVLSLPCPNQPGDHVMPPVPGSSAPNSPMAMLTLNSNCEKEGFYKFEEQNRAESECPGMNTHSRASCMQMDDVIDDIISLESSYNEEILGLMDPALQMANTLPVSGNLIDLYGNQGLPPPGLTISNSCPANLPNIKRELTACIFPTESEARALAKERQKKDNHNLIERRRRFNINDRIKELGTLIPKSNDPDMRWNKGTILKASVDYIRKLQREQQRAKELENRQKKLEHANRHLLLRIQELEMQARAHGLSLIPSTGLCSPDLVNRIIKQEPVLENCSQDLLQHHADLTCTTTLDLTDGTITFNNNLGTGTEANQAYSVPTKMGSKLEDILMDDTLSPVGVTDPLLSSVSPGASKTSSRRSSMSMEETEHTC

cells = assay type: functional

UDP-galactopyranose mutase, sequence (P9WIQ1 whole entry): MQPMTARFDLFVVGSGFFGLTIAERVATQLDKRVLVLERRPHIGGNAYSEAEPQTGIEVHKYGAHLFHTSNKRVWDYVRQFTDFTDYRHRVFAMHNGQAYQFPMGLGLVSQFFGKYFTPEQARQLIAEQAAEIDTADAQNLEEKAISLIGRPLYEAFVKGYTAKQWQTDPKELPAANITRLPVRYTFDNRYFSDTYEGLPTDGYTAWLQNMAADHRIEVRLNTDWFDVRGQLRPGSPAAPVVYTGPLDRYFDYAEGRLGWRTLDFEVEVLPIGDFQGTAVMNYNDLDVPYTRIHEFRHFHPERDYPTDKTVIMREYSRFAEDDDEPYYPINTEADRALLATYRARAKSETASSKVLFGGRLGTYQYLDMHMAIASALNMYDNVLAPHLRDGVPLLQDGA

Structure (SMILES): CCN1C(=O)NC(=O)/C(=C\c2cn(CC(=O)N3CCCC3)c3ccccc23)C1=O
- AC50 [1]: 107 µM (active)

Structure (SMILES): O=Nc1c2[nH]c3ccccc3[n+]([O-])c-2c2ccccc12
- CC50 [2]: 34.2 µM (active)
- EC50 [3]: 15.7 µM (active)
- EC50 [4]: 8.47 µM (active)
- EC50 (H4): 12.5 µM (inconclusive)
- CC50 [5]: > 40 µM (active)
- IC50 (Exodeoxyribonuclease V): > 119 µM (inactive)
- IC50 [6]: > 119 µM (inactive)

Structure (SMILES): Clc1ccccc1-c1nnc(-c2cccs2)o1
- IC50 (HEK293): > 67.5 µM (inactive)
- IC50 [7]: > 67.5 µM (inactive)

Structure (SMILES): Cc1cc(C)c(C)c(S(=O)(=O)N2CCN(C)CC2)c1C
- IC50 (HEK293): > 67.5 µM (inactive)
- IC50 [7]: > 67.5 µM (inactive)

Structure (SMILES): O=C(OCCN1C(=O)c2cccc3c(N4CCOCC4)ccc(c23)C1=O)c1cccc(Cl)c1
- AC50 [1]: 19.2 µM (active)

Structure (SMILES): N#Cc1sc2nc(-c3cccs3)cc(-c3ccc(Cl)cc3)c2c1N
- AC50 (Cytochrome P450 2C19): 3.98 µM (inconclusive)
- IC50 (CHO): > 49.7 µM (inactive)
- IC50 (Beta Lactamase): 4.74 µM (active)
- AC50 (Cytochrome P450 3A4): 1.41 µM (inconclusive)

Structure (SMILES): CCS(=O)(=O)N1CCN(c2ccc([N+](=O)[O-])c(NC(C)c3ccccc3)c2)CC1 (configuration not stated)
- IC50 [8]: > 80 µM (inactive)

Structure (SMILES): Cc1cc(O)c(C(C)C)cc1N=Cc1ccc(N(C)C)cc1
- IC50 [8]: 23.9 µM (inactive)
- IC50 (Genome polyprotein): > 100 µM (active)

Structure (SMILES): COc1ccccc1NC(=O)CCC(=O)N/N=C(/C)c1ccc(C)cc1
- IC50 (HEK293): 46.9 µM (inactive)
- IC50 [7]: > 67.5 µM (inactive)

Structure (SMILES): Cc1cc(C(=O)N/N=C/c2ccc([N+](=O)[O-])o2)c(C)o1
- IC50 (Exodeoxyribonuclease V): > 119 µM (inactive)
- CC50 [9]: 38.9 µM (active)
- IC50 [6]: > 119 µM (inactive)
- AC50 [10]: 4.79 µM (active)
- IC50 (cells): 1.89 µM (active)
